Broadly, the pIC50 is the negative decadic logarithm of the IC50, by convention in mol/L. Broadly, the pKd is −log10 of the Kd, conventionally taken in molar units. Broadly, the logD is the decadic logarithm of the distribution of all forms, ionised or not, between an organic phase and buffer at a given pH. Lower therefore signals lower lipophilicity. The solubility is the dissolved amount per volume that the medium holds. The term IC50 denotes the concentration that inhibits the measured activity by half.

These results are taken from ChEMBL document CHEMBL5528031, “Synthesis and antitumor activity of cyclopentane-fused anthraquinone derivatives” (Eur J Med Chem, 2024).

A short description of series [1]: Drug uptake in human HCT-116 cells assessed as increase in intracellular accumulation at 2 uM measured after 24 hrs by flow cytometry analysis. Particulars: hct-116, 24 h. The series is classed as ADME, cell-based. On the technique in general: Flow cytometry measures light scatter and fluorescence of single cells or particles in a stream.
In series [2] the test system is Z-138. In words: Antiproliferative activity against human Z138 cells assessed as inhibition of cell growth incubated for 72 hrs by MTT assay. The class given is functional, cell-based. Particulars: Z-138, 72 h. On the technique in general: Tetrazolium assays rely on reduction of a dye to a coloured formazan, in cell work by metabolically active cells.
Series [3] can be described thus: Antiproliferative activity against human DND41 cells assessed as inhibition of cell growth incubated for 72 hrs by MTT assay. The series is classed as functional, cell-based. Particulars: DND41, 72 h.
A short description of series [4]: Drug localization in lysosome of human HCT-116 cells assessed as appearance of yellow color at 2 uM incubated for 24 hrs by LysoTracker Green staining based fluorescence microscopic analysis. The series is classed as ADME, subcellular. Particulars: hct-116, 24 h.
The subject of series [5] is HCT-116. The series is described as follows: Induction of oxidative stress in human HCT-116 cells assessed as increase in ROS-positive cells at 10 uM incubated for 2 hrs by flow cytometry analysis. The series is classed as functional, cell-based.
In series [6] the test system is CAPAN-1. The series is described as follows: Antiproliferative activity against human CAPAN-1 cells assessed as inhibition of cell growth incubated for 72 hrs by MTT assay. The class given is functional, cell-based. Particulars: CAPAN-1, 72 h.
In series [7] the test system is DNA. In words: Binding affinity to pBR322 plasmid DNA (unknown origin) assessed as DNA intercalation by measuring reduction in electrophoretic shift at 5 to 20 uM incubated for 30 mins by EtBr staining based agarose gel electrophoresis. The class given is nucleic-acid assay. Particulars: dose 5-20 µM.
Series [8] relates to NCI-H1975. In words: Antiproliferative activity against human NCI-H1975 cells assessed as inhibition of cell growth incubated for 72 hrs by MTT assay. The class given is functional, cell-based. Particulars: NCI-H1975, 72 h.
Series [9] in a line: Drug localization in nucleus of human HCT-116 cells assessed as appearance of magenta color at 2 uM incubated for 24 hrs by Hoechst 33342 staining based fluorescence microscopic analysis. The class given is ADME, subcellular. Particulars: hct-116, 24 h.
For series [10], the system named is Calf thymus DNA. The series is described as follows: Binding affinity to calf thymus DNA assessed as dissociation constant at 10 uM by fluorescence spectroscopy analysis. The series is classed as nucleic-acid assay, Bos taurus.
Series [11] deals with Calf thymus DNA. The series is described as follows: Binding affinity to calf thymus DNA assessed as binding constant at 10 uM by fluorescence spectroscopy analysis. The class given is nucleic-acid assay. Particulars: Bos taurus.
The test system of series [12] is HL-60. In words: Antiproliferative activity against human HL-60 cells assessed as inhibition of cell growth incubated for 72 hrs by MTT assay. The class given is functional, cell-based. Particulars: HL-60, 72 h.
Series [13] is described as follows: Antiproliferative activity against multidrug resistant human K562/4 cells expressing P-gp assessed as inhibition of cell growth incubated for 72 hrs by MTT assay. The class given is functional, cell-based. Particulars: K562/4, 72 h.
A short description of series [14]: Drug localization in mitochondria of human HCT-116 cells assessed as appearance of yellow color at 2 uM incubated for 24 hrs by MitoTracker deep red staining based fluorescence microscopic analysis. The class given is ADME. Particulars: hct-116, 24 h.
The nature of series [15]: Octanol/water partition coefficient, logP of compound at pH 7.4 by HPLC analysis. The series is classed as physicochemical.
Series [16] deals with HCT-116. In words: Induction of oxidative stress in human HCT-116 cells assessed as increase in ROS-positive cells at 10 uM incubated for 2 hrs by Abcam-ROS deep red staining based fluorescence microscopic analysis. The class given is functional, cell-based.
Series [17] is described as follows: Drug uptake in human HCT-116 cells assessed as increase in intracellular accumulation at 2 uM measured after 24 hrs by Hoechst 33342 staining based fluorescence confocal microscopic analysis. Particulars: hct-116, 24 h. The series is classed as ADME, cell-based.
A short description of series [18]: Drug uptake in hFB-hTERT6 cells. The class given is ADME, cell-based. Particulars: human.
Series [19] concerns HCT-116. The series is described as follows: Antiproliferative activity against human HCT-116 cells assessed as inhibition of cell growth incubated for 72 hrs by MTT assay. The class given is functional, cell-based. Particulars: HCT-116, 72 h.
The subject of series [20] is LN-229. In words: Antiproliferative activity against human LN-229 cells assessed as inhibition of cell growth incubated for 72 hrs by MTT assay. The series is classed as functional, cell-based. Particulars: LN-229, 72 h.
The nature of series [21]: Drug uptake in human HCT-116 cells assessed as increase in intracellular accumulation at 2 uM measured after 5 mins by Hoechst 33342 staining based fluorescence confocal microscopic analysis. Particulars: hct-116, 5 min. The class given is ADME, cell-based.
Series [22] has as its system K562. In words: Antiproliferative activity against human K562 cells assessed as inhibition of cell growth incubated for 72 hrs by MTT assay. Particulars: K562, 72 h. The series is classed as functional, cell-based.
A short description of series [23]: Drug localization in mitochondria of human HCT-116 cells assessed as appearance of yellow color at 2 uM incubated for 9 hrs by MitoTracker deep red staining based fluorescence microscopic analysis. The series is classed as ADME. Particulars: hct-116, 9 h.
The nature of series [24]: Solubility of compound in deionized water at pH 6. The series is classed as physicochemical.
The nature of series [25]: Drug localization in lysosome of human HCT-116 cells assessed as appearance of yellow color at 2 uM incubated for 9 hrs by LysoTracker Green staining based fluorescence microscopic analysis. The class given is ADME, subcellular. Particulars: hct-116, 9 h.
The subject of series [26] is DNA. The series is described as follows: Binding affinity to pBR322 plasmid DNA (unknown origin) assessed as DNA intercalation by measuring reduction in electrophoretic shift incubated for 30 mins by EtBr staining based agarose gel electrophoresis. The series is classed as nucleic-acid assay. Particulars: dose 5-20 µM.
A short description of series [27]: Cytotoxicity against hFB-hTERT6 cells assessed as inhibition of cell growth incubated for 72 hrs by MTT assay. The class given is toxicity, cell-based. Particulars: human.
Series [28] deals with T1, DNA topoisomerase 1 (Homo sapiens) (UniProt P11387).
T1 sequence (whole entry): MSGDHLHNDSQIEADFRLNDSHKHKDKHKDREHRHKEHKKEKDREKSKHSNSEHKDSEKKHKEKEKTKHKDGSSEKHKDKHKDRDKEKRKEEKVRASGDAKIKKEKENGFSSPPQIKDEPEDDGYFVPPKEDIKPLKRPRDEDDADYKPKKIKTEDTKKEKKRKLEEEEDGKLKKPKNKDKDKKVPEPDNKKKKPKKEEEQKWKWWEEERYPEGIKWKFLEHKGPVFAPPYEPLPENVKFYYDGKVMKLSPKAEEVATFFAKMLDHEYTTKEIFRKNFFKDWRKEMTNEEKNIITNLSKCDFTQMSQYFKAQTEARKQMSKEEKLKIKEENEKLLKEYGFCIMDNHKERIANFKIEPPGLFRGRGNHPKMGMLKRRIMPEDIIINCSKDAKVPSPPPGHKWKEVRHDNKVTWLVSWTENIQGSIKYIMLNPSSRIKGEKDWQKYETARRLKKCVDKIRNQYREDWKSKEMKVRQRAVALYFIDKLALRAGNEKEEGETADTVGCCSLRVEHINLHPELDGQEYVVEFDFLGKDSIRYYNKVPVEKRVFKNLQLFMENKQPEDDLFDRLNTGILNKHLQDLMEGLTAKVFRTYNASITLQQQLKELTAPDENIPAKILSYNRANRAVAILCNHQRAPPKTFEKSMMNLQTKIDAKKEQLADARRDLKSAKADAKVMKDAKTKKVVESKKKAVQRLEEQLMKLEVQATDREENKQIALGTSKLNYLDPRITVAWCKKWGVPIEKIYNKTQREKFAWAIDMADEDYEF
The series is described as follows: Inhibition of topoisomerase 1 (unknown origin) assessed as reduction in unwinding of supercoiled pBR322 plasmid DNA by measuring reduction in electrophoretic mobility at 5 to 20 uM incubated for 30 mins by EtBr staining based agarose gel electrophoresis. Particulars: dose 5-20 µM.

Series [29] addresses T1, DNA topoisomerase 1 (Homo sapiens). The series is described as follows: Inhibition of topoisomerase 1 (unknown origin) assessed as reduction in unwinding of supercoiled pBR322 plasmid DNA by measuring reduction in electrophoretic mobility at 20 uM incubated for 30 mins by EtBr staining based agarose gel electrophoresis.

pIC50, pKd: −log10 of the molar value. ≈ marks a conversion by molar mass, not a printed value. Calls of active or inactive are those of the source. No cut-off for these calls is given here.

Regarding `COc1cccc2c1C(=O)c1c(O)c3c(c(O)c1C2=O)C[C@@](O)(C(=O)CO)C[C@@H]3O[C@H]1C[C@H](N)[C@H](O)[C@H](C)O1` [DOXORUBICIN], the Drug uptake result is “Active” in series [1]; “Active” in [4]; “Active” in series [9]; “Not Active” in series [14]; “Active” in [17]; “Active” in [18]. For the same compound, the pIC50 in series [2] is 5.80; in [3], 6.12; in series [6] it was 5.77; in series [8], 6.21; in series [12] it was 6.66; in series [13] it was 5.38. Moreover, the figures for the pIC50 in series [19] and in series [20] were 6.52 and 5.74, respectively. Moreover, the result in [5] and in series [16] was inactive. Moreover, the result in series [7] was Active. In addition, the pKd in series [10] was 6.15. Further, in series [11], the Kb was 1.4 10^6/M. In addition, the logD in [15] turned out to be 0.3.
With `N[C@H]1CCN(C(=O)C2Cc3c(O)c4c(c(O)c3C2)C(=O)c2ccccc2C4=O)C1`, the Drug uptake entry in [1] is given as “Active”; in series [21] it was “Active”; in series [23], “Not Active”; in series [25], “Active”; in series [18], “Active”. The pIC50 in series [2] was 5.60; in series [3] it was 5.62; in [22], 5.72; in series [6], 6.00; in series [8] it was 5.64; in [12], 5.68. Besides, the negative logarithm of the IC50 (pIC50) in series [13] is 5.72; in series [19], 5.72; in [20], 6.15. For the same compound, the result in series [5] and in series [16] was Active. In series [24], this compound yielded a solubility of 55 mg/mL (≈ 140 mM). In addition, the pKd in series [10] was 5.54. The Kb in series [11] was 0.35 10^6/M. In addition, the Activity result in [26] was “Dose-Dependent Effect”. Besides, the logD in [15] turned out to be 1.56. Also, the IC50 at 72 h in series [27] is 4200 nM. Moreover, in series [28], the inhibition result is “Active”.
Take `Cc1oc2c(O)c3c(c(O)c2c1C(=O)N1CC[C@H](N)C1)C(=O)c1ccccc1C3=O`: the inhibition entry in [29] is “Active”. Moreover, in series [7], the outcome was inactive.
